# Assay results from US7115642B2, “Substituted diphenyl isoxazoles, pyrazoles and oxadiazoles useful for treating HCV infection” (priority 2003, dated 2006).
# Test system: HCV replicon (5-2 Luc replicon-comprising cells)
# Assay: HCV replicon assay (luciferase)
# Format: cell-based, Hepatitis C virus
# Details: 5-2 Luc replicon cells, luciferase readout; read-out: Replicon IC50
# Source text: In one embodiment, the inhibitory activity of the compounds can be confirmed in a replicon assay that assesses the ability of a test compound to block or inhibit HCV replication in replicon cells. One example of a suitable replicon assay is the liver cell-line Huh 7-based replicon assay described in Lohmann et al., 1999, Science 285:110–113. A specific example of this replicon assay which utilizes luciferase translation is provided in the Examples Section. In one embodiment of this assay, the amount of test compound that yields a 50% reduction in translation as compared to a control cell (IC50) may be determined.
# The inhibitory activity of certain exemplary compounds of the invention was confirmed using an HCV replicon assay. The HCV replicon can include such features as the HCV 5′ untranslated region including the HCV IRES, the HCV 3′ untranslated region, selected HCV genes encoding HCV polypeptides, selectable markers, and a reporter gene such as luciferase, GFP, etc. In the assay, actively dividing 5-2 Luc replicon-comprising cells (obtained from Ralf Bartenschlager; see Lohmann et al., 1999, Science 285:110–113) were seeded at a density of between about 5,000 and 7,500 cells/well onto 96 well plates (about 90 μl of cells per well) and incubated at 37° C. and 5% CO2 for 24 hours. Then, the test compound (in a volume of about 10 μl) was added to the wells at various concentrations and the cells were incubated for an additional 24 hours before luciferase assay. Briefly, the Bright-Glo reagent was diluted 1:1 with PBS and 100 μl of diluted reagent was added to each well. After 5 min of incubation at room temperature, luciferin emission was quantified with a luminometer. In this assay, the amount of test compound that yielded a 50% reduction in luciferase activity (IC50) was determined.
# In TABLE 1, a value of “+” indicates an IC50 of 10 μM or less in the specified assay; a value of “−” indicates an IC50 of greater than 10 μM in the specified assay.
row,Compound,IC50
1,CN(C)C(=O)N1CCN(c2cccc(Cl)c2-c2cc(-c3cccc(NC(=O)C(Cl)Cl)c3)on2)CC1 [Compound 531],< 10 µM
2,CC(C)(C)OC(=O)NC(Cc1ccccc1)C(=O)N1CCN(c2cccc(Cl)c2-c2cc(-c3cccc(NC(=O)C(Cl)Cl)c3)on2)CC1 (stereo not drawn) [Compound 532],< 10 µM
3,O=C(Nc1cccc(-c2cc(-c3c(Cl)cccc3N3CCN(C(=O)Cc4ccccc4)CC3)no2)c1)C(Cl)Cl [Compound 533],< 10 µM
4,O=C(Nc1cccc(-c2cc(-c3c(Cl)cccc3N3CCN(C(=O)Nc4ccccc4)CC3)no2)c1)C(Cl)Cl [Compound 534],< 10 µM
5,O=C(Nc1cccc(-c2cc(-c3c(Cl)cccc3N3CCN(C(=O)C4CC4)CC3)no2)c1)C(Cl)Cl [Compound 535],< 10 µM
6,O=C(Nc1cccc(-c2cc(-c3c(Cl)cccc3N3CCN(c4ccc(C(F)(F)F)cn4)CC3)no2)c1)C(Cl)Cl [Compound 536],< 10 µM
7,O=C(Nc1cccc(-c2cc(-c3c(Cl)cccc3N3CCN(c4ncccc4C(F)(F)F)CC3)no2)c1)C(Cl)Cl [Compound 538],< 10 µM
8,O=C(Nc1cccc(-c2cc(-c3c(Cl)cccc3N3CCN(C(=O)c4c[nH]cn4)CC3)no2)c1)C(Cl)Cl [Compound 539],< 10 µM
9,CN(C)S(=O)(=O)N1CCN(c2cccc(Cl)c2-c2cc(-c3cccc(NC(=O)C(Cl)Cl)c3)on2)CC1 [Compound 540],< 10 µM
10,NC(Cc1ccccc1)C(=O)N1CCN(c2cccc(Cl)c2-c2cc(-c3cccc(NC(=O)C(Cl)Cl)c3)on2)CC1 (stereo not drawn) [Compound 541],> 10 µM
11,Nc1cccc(Cl)c1-c1cc(-c2cccc(NC(=O)C(Cl)Cl)c2)on1 [Compound 542],< 10 µM
12,O=C(NC1CCN(c2cccc(Cl)c2-c2cc(-c3cccc(NC(=O)C(Cl)Cl)c3)on2)CC1)c1ccco1 [Compound 543],< 10 µM
13,O=C(NC1CCN(c2cccc(Cl)c2-c2cc(-c3cccc(NC(=O)C(Cl)Cl)c3)on2)CC1)c1ccccn1 [Compound 544],< 10 µM
14,O=C(NC1CCN(c2cccc(Cl)c2-c2cc(-c3cccc(NC(=O)C(Cl)Cl)c3)on2)CC1)c1cccnc1 [Compound 545],< 10 µM
15,CS(=O)(=O)NC1CCN(c2cccc(Cl)c2-c2cc(-c3cccc(NC(=O)C(Cl)Cl)c3)on2)CC1 [Compound 546],< 10 µM
16,O=C(Nc1cccc(-c2cc(-c3c(Cl)cccc3N3CCC(NS(=O)(=O)c4ccccc4)CC3)no2)c1)C(Cl)Cl [Compound 547],< 10 µM
17,O=C(Nc1ccccc1)NC1CCN(c2cccc(Cl)c2-c2cc(-c3cccc(NC(=O)C(Cl)Cl)c3)on2)CC1 [Compound 548],< 10 µM
18,O=C(Nc1cccc(-c2cc(-c3c(Cl)cccc3N3CCN(Cc4ccccc4)CC3)no2)c1)C(Cl)Cl [Compound 549],< 10 µM
19,O=C(Nc1cccc(-c2cc(-c3c(Cl)cccc3N3CCN(c4cccnc4)CC3)no2)c1)C(Cl)Cl [Compound 550],< 10 µM
20,O=C(Nc1cccc(-c2cc(-c3c(Cl)cccc3N3CCN(C(=O)c4ccncc4)CC3)no2)c1)C(Cl)Cl [Compound 552],< 10 µM

row,Compound,IC50
1,O=C(Nc1cccc(-c2cc(-c3c(Cl)cccc3N3CCN(C(=O)c4cccnc4)CC3)no2)c1)C(Cl)Cl [Compound 553],< 10 µM
2,O=C(Nc1cccc(-c2cc(-c3c(Cl)cccc3N3CCN(C(=O)c4cccs4)CC3)no2)c1)C(Cl)Cl [Compound 554],< 10 µM
3,O=C(Nc1cccc(-c2cc(-c3c(Cl)cccc3N3CCN(C(=O)c4cc5ccccc5[nH]4)CC3)no2)c1)C(Cl)Cl [Compound 555],< 10 µM
4,O=C(Nc1cccc(-c2cc(-c3c(Cl)cccc3N3CCN(C(=O)c4cnccn4)CC3)no2)c1)C(Cl)Cl [Compound 556],< 10 µM
5,O=C(Nc1cccc(-c2cc(-c3c(Cl)cccc3N3CCN(C(=O)c4ccc(-c5ccccc5)cc4)CC3)no2)c1)C(Cl)Cl [Compound 557],> 10 µM
6,O=C(Nc1cccc(-c2cc(-c3c(Cl)cccc3N3CCN(C(=O)Cc4cccnc4)CC3)no2)c1)C(Cl)Cl [Compound 558],< 10 µM
7,O=C(Nc1cccc(-c2cc(-c3c(Cl)cccc3Oc3cccnc3)no2)c1)C(Cl)Cl [Compound 559],< 10 µM
8,CC(=O)Nc1cccc(Cl)c1-c1cc(-c2cccc(NC(=O)C(Cl)Cl)c2)on1 [Compound 560],< 10 µM
9,CS(=O)(=O)Nc1cccc(Cl)c1-c1cc(-c2cccc(NC(=O)C(Cl)Cl)c2)on1 [Compound 561],< 10 µM
10,O=C(Nc1cccc(Cl)c1-c1cc(-c2cccc(NC(=O)C(Cl)Cl)c2)on1)c1cccnc1 [Compound 562],< 10 µM
11,CN(C(=O)C(Cl)Cl)c1cccc(-c2cc(-c3c(Cl)cccc3N=[N+]=[N-])no2)c1 [Compound 563],< 10 µM
12,CN(C(=O)C(Cl)Cl)c1cccc(-c2cc(-c3c(N)cccc3Cl)no2)c1 [Compound 564],> 10 µM
13,CC(=O)NC1CCN(c2cccc(Cl)c2-c2cc(-c3cccc(NC(=O)C(Cl)Cl)c3)on2)C1 (stereo not drawn) [Compound 565],< 10 µM
14,O=C(Nc1cccc(-c2cc(-c3c(Cl)cccc3N3CCN(C(=O)C(F)(F)F)CC3)no2)c1)C(Cl)Cl [Compound 566],< 10 µM
15,O=C(Nc1cccc(-c2cc(-c3c(Cl)cccc3N3CCN(S(=O)(=O)C(F)(F)F)CC3)no2)c1)C(Cl)Cl [Compound 567],< 10 µM
16,CC(C)(C)OC(=O)N1CCC(Oc2cccc(Cl)c2-c2cc(-c3cccc(NC(=O)C(Cl)Cl)c3)on2)CC1 [Compound 568],< 10 µM
17,O=C(Nc1cccc(-c2cc(-c3c(Cl)cccc3OC3CCNCC3)no2)c1)C(Cl)Cl [Compound 569],< 10 µM
18,CC(C)(C)OC(=O)N1CCCC(Oc2cccc(Cl)c2-c2cc(-c3cccc(NC(=O)C(Cl)Cl)c3)on2)C1 (stereo not drawn) [Compound 570],< 10 µM
19,O=C(Nc1cccc(-c2cc(-c3c(Cl)cccc3OC3CCCNC3)no2)c1)C(Cl)Cl (stereo not drawn) [Compound 571],< 10 µM
20,O=C(NC1CCN(c2cccc(Cl)c2-c2cc(-c3cccc(NC(=O)C(Cl)Cl)c3)on2)C1)c1ccccn1 (stereo not drawn) [Compound 572],< 10 µM

row,Compound,IC50
1,CS(=O)(=O)NC1CCN(c2cccc(Cl)c2-c2cc(-c3cccc(NC(=O)C(Cl)Cl)c3)on2)C1 (stereo not drawn) [Compound 573],< 10 µM
2,CN(C)C(=O)NC1CCN(c2cccc(Cl)c2-c2cc(-c3cccc(NC(=O)C(Cl)Cl)c3)on2)C1 (stereo not drawn) [Compound 574],< 10 µM
3,CCNC(=O)NC1CCN(c2cccc(Cl)c2-c2cc(-c3cccc(NC(=O)C(Cl)Cl)c3)on2)C1 (stereo not drawn) [Compound 575],< 10 µM
4,CS(=O)(=O)N1CCC(Oc2cccc(Cl)c2-c2cc(-c3cccc(NC(=O)C(Cl)Cl)c3)on2)CC1 [Compound 576],< 10 µM
5,CC(=O)N1CCC(Oc2cccc(Cl)c2-c2cc(-c3cccc(NC(=O)C(Cl)Cl)c3)on2)CC1 [Compound 577],< 10 µM
6,CCNC(=O)N1CCC(Oc2cccc(Cl)c2-c2cc(-c3cccc(NC(=O)C(Cl)Cl)c3)on2)CC1 [Compound 578],< 10 µM
7,CCNC(=O)NC1CCN(c2cccc(Cl)c2-c2cc(-c3cccc(NC(=O)C(Cl)Cl)c3)on2)CC1 [Compound 579],< 10 µM
8,CN(c1cccc(Cl)c1-c1cc(-c2cccc(NC(=O)C(Cl)Cl)c2)on1)C1CCN(C(=O)OC(C)(C)C)CC1 [Compound 580],< 10 µM
9,CN(c1cccc(Cl)c1-c1cc(-c2cccc(NC(=O)C(Cl)Cl)c2)on1)C1CCNCC1 [Compound 581],< 10 µM
10,CC(=O)N1CCC(N(C)c2cccc(Cl)c2-c2cc(-c3cccc(NC(=O)C(Cl)Cl)c3)on2)CC1 [Compound 582],< 10 µM
11,CN(c1cccc(Cl)c1-c1cc(-c2cccc(NC(=O)C(Cl)Cl)c2)on1)C1CCN(S(C)(=O)=O)CC1 [Compound 583],< 10 µM
12,CCNC(=O)N1CCC(N(C)c2cccc(Cl)c2-c2cc(-c3cccc(NC(=O)C(Cl)Cl)c3)on2)CC1 [Compound 584],< 10 µM
13,CC(=O)N1CCCC(Oc2cccc(Cl)c2-c2cc(-c3cccc(NC(=O)C(Cl)Cl)c3)on2)C1 (stereo not drawn) [Compound 585],< 10 µM
14,CS(=O)(=O)N1CCCC(Oc2cccc(Cl)c2-c2cc(-c3cccc(NC(=O)C(Cl)Cl)c3)on2)C1 (stereo not drawn) [Compound 586],< 10 µM
15,CCNC(=O)N1CCCC(Oc2cccc(Cl)c2-c2cc(-c3cccc(NC(=O)C(Cl)Cl)c3)on2)C1 (stereo not drawn) [Compound 587],< 10 µM
16,O=C(Nc1cccc(-c2cc(-c3c(Cl)cccc3N3CCC(NCc4ccccn4)CC3)no2)c1)C(Cl)Cl [Compound 588],< 10 µM
17,CC(C)(C)OC(=O)NCC1CCN(c2cccc(Cl)c2-c2cc(-c3cccc(NC(=O)C(Cl)Cl)c3)on2)CC1 [Compound 589],< 10 µM
18,COC(=O)C1CC(Oc2cccc(Cl)c2-c2cc(-c3cccc(NC(=O)C(Cl)Cl)c3)on2)CN1C(=O)OC(C)(C)C (stereo not drawn) [Compound 590],< 10 µM
19,COC(=O)C1CC(Oc2cccc(Cl)c2-c2cc(-c3cccc(NC(=O)C(Cl)Cl)c3)on2)CN1 (stereo not drawn) [Compound 591],< 10 µM
20,CC(C)(C)OC(=O)N1CCC(Oc2cccc(Cl)c2-c2cc(-c3cccc(NC(=O)C(Cl)Cl)c3)on2)C1 (stereo not drawn) [Compound 592],< 10 µM
